Where a SMILES comes first, the peptide text is derived from it. Bridges are numbered along the chain shown (N, C = ends). [ ]: non-standard residue; d: D form. The star is where a group is joined. Heptanoyl(5-Me) = CCC(C)CCCC(=O)*; Dab = NCC[C@H](N)C(=O)O
Legend:
[1] = tested on: Burkholderia cepacia GIIIa AU0019; test: Viable cell count (CFU) with colistin and apyrase; format: cell-based; conditions: apyrase 2 U/ml; colistin at less than 10 μg/ml
[2] = tested on: A. baumannii AC121; test: MIC from dose-kill curves, colistin alone or with apyrase; format: cell-based; conditions: 4 hours at 37° C., apyrase 2 U/ml in the combination
Description: (§1) Data were collected from systematic tests to investigate bacterial killing with colistin and apyrase combinations against ESKAPE bacteria in vitro. […] Dose-kill curves for 22 strains (colistin sensitive or resistant ˜10^6 CFU/ml) were generated after exposure to colistin at different concentrations by itself or in combination with apyrase (2 U/ml) for 4 hours at 37° C. Data were obtained from three independent experiments. […] The MIC of colistin and apyrase combinations was generally 2- to 8-fold lower in comparison to the MIC for colistin alone (FIG. 31 and Table 2). For Gram-positive strains, the MICs results obtained with colistin alone and with the combination of colistin and apyrase were very similar.

[3] = tested on: A. baumannii AC285; test: as above; format: cell-based; conditions: 4 hours at 37° C., apyrase 2 U/ml in the combination
Description: as §1

[4] = tested on: A. baumannii ATCC 19606; test: as above; format: cell-based; conditions: 4 hours at 37° C., apyrase 2 U/ml in the combination
Description: as §1

[5] = tested on: A. baumannii DMC1; test: as above; format: cell-based; conditions: 4 hours at 37° C., apyrase 2 U/ml in the combination
Description: as §1

[6] = tested on: A. baumannii VBA9; test: as above; format: cell-based; conditions: 4 hours at 37° C., apyrase 2 U/ml in the combination
Description: as §1

[7] = tested on: B. multivorans AU0801; test: as above; format: cell-based; conditions: 4 hours at 37° C., apyrase 2 U/ml in the combination
Description: as §1

[8] = tested on: E. coli K-12; test: as above; format: cell-based; conditions: 4 hours at 37° C., apyrase 2 U/ml in the combination
Description: as §1

[9] = tested on: K. pneumonia AD; test: as above; format: cell-based; conditions: 4 hours at 37° C., apyrase 2 U/ml in the combination
Description: as §1

[10] = tested on: P. aeruginosa ATCC 27853; test: as above; format: cell-based; conditions: 4 hours at 37° C., apyrase 2 U/ml in the combination
Description: as §1

[11] = tested on: P. aeruginosa AU1292; test: as above; format: cell-based; conditions: 4 hours at 37° C., apyrase 2 U/ml in the combination
Description: as §1

[12] = tested on: P. aeruginosa AU7443; test: as above; format: cell-based; conditions: 4 hours at 37° C., apyrase 2 U/ml in the combination
Description: as §1

[13] = tested on: P. aeruginosa PAO300; test: as above; format: cell-based; conditions: 4 hours at 37° C., apyrase 2 U/ml in the combination
Description: as §1

[14] = tested on: S. aureus ATCC 25923; test: as above; format: cell-based; conditions: 4 hours at 37° C., apyrase 2 U/ml in the combination
Description: as §1

[15] = tested on: A. baumannii strain ATCC 19606; test: Viable cell count (CFU) with colistin and apyrase; conditions: apyrase 1 and 2 U/ml; colistin 0.25 to 2 μg/ml; colistin alone at the same concentrations
Description: Approximately 10^6 CFU/ml of A. baumannii strain ATCC 19606 was grown on solid medium culture plates in the presence of combinations of 0, 1, and 2 U/ml of apyrase and 0, 0.25, 0.5, 1, and 2 μg/ml of colistin. After incubation, the numbers of viable cells were determined by counting the colony forming units (CFU) on the plate (data provided as CFU/ml). […] In these Examples, the colistin is colistin sulfate salt, catalog number C4461 from Sigma-Aldrich (St. Louis, Mo.) and the apyrase is catalog number M0393L from New England BioLabs Inc. (Ipswich, Mass.).

[16] = tested on: A. baumannii strain DMC1; test: Viable cell count (CFU) with colistin and apyrase; conditions: apyrase 1 and 2 U/ml; colistin 4 to 32 μg/ml; colistin alone at the same concentrations
Description: Approximately 10^6 CFU/ml of A. baumannii strain DMC1 was grown on solid medium culture plates in the presence of combinations of 0, 1, and 2 U/ml of apyrase and 0, 4, 8, 16, and 32 μg/ml of colistin. After incubation, the numbers of viable cells were determined by counting the colony forming units (CFU) on the plate (data provided as CFU/ml).

[17] = tested on: A. baumannii strain AC121; test: Viable cell count (CFU) with colistin and apyrase; conditions: apyrase 2 U/ml; colistin at less than 20 μg/ml; colistin-resistant strain
Description: Approximately 10^5 to 10^6 CFU/ml of the colistin-resistant A. baumannii strain AC121 was grown in the presence of combinations of 0 and 2 U/ml of apyrase and approximately 0 to 20 μg/ml of colistin. After incubation, the numbers of viable cells were determined by counting the colony forming units (CFU) on the plate (data provided as CFU/ml).

[18] = tested on: P. aeruginosa strain AU1292; test: Viable cell count (CFU) with colistin and apyrase; conditions: apyrase 2 U/ml; colistin at less than 20 μg/ml
Description: P. aeruginosa strain AU1292 was grown in the presence of combinations of 0 and 2 U/ml of apyrase and approximately 0 to 20 μg/ml of colistin. After incubation, the numbers of viable cells were determined by counting the colony forming units (CFU) on the plate (data provided as CFU/ml).

[19] = tested on: P. aeruginosa strain AU7443, mucoid; test: Viable cell count (CFU) with colistin and apyrase; conditions: apyrase 2 U/ml; colistin at less than 20 μg/ml
Description: After incubation, the numbers of viable cells were determined by counting the colony forming units (CFU) on the plate (data provided as CFU/ml).

[20] = tested on: Burkholderia vietnamiensis AU10214; test: Viable cell count (CFU) with colistin and apyrase; conditions: apyrase 2 U/ml; colistin at less than 20 μg/ml
Description: Burkholderia vietnamiensis AU10214 was grown in the presence of combinations of 0 and 2 U/ml of apyrase and approximately 0 to 20 μg/ml of colistin. After incubation, the numbers of viable cells were determined by counting the colony forming units (CFU) on the plate (data provided as CFU/ml).

[21] = tested on: Burkholderia cepacia AU1114; test: Viable cell count (CFU) with colistin and apyrase; conditions: apyrase 2 U/ml; colistin at less than 20 μg/ml
Description: Burkholderia cepacia AU1114 was grown in the presence of combinations of 0 and 2 U/ml of apyrase and approximately 0 to 20 μg/ml of colistin. After incubation, the numbers of viable cells were determined by counting the colony forming units (CFU) on the plate (data provided as CFU/ml).

[22] = tested on: P. aeruginosa strain AU8104; test: Viable cell count (CFU) with colistin and apyrase; conditions: apyrase 2 U/ml; colistin at less than 10 μg/ml
Description: P. aeruginosa strain AU8104 was grown in the presence of combinations of 0 and 2 U/ml of apyrase and approximately 0 to 20 μg/ml of colistin. After incubation, the numbers of viable cells were determined by counting the colony forming units (CFU) on the plate (data provided as CFU/ml).

[23] = tested on: Burkholderia cepacia GIIIb AU0062; test: Viable cell count (CFU) with colistin and apyrase; conditions: apyrase 2 U/ml; colistin at less than 20 μg/ml
Description: Burkholderia cepacia GIIIb AU0062 was grown in the presence of combinations of 0 and 2 U/ml of apyrase and approximately 0 to 20 μg/ml of colistin. After incubation, the numbers of viable cells were determined by counting the colony forming units (CFU) on the plate (data provided as CFU/ml).

[24] = tested on: Burkholderia ambifaria AU5203; test: Viable cell count (CFU) with colistin and apyrase; conditions: apyrase 2 U/ml; colistin at less than 20 μg/ml
Description: Burkholderia ambifaria AU5203 was grown in the presence of combinations of 0 and 2 U/ml of apyrase and approximately 0 to 20 μg/ml of colistin. After incubation, the numbers of viable cells were determined by counting the colony forming units (CFU) on the plate (data provided as CFU/ml).

[25] = tested on: Burkholderia cepacia GIIIb AU0055; test: Viable cell count (CFU) with colistin and apyrase; conditions: apyrase 2 U/ml; colistin at less than 10 μg/ml
Description: Burkholderia cepacia GIIIb AU0055 was grown in the presence of combinations of 0 and 2 U/ml of apyrase and approximately 0 to 20 μg/ml of colistin. After incubation, the numbers of viable cells were determined by counting the colony forming units (CFU) on the plate (data provided as CFU/ml).

[26] = tested on: P. aeruginosa AU0584; test: Viable cell count (CFU) with colistin and apyrase; conditions: apyrase 2 U/ml; colistin at less than 10 μg/ml
Description: P. aeruginosa AU0584 was grown in the presence of combinations of 0 and 2 U/ml of apyrase and approximately 0 to 20 μg/ml of colistin. After incubation, the numbers of viable cells were determined by counting the colony forming units (CFU) on the plate (data provided as CFU/ml).

[27] = tested on: Burkholderia dolosa AU0589; test: Viable cell count (CFU) with colistin and apyrase; conditions: apyrase 2 U/ml; colistin at less than 20 μg/ml
Description: Burkholderia dolosa AU0589 was grown in the presence of combinations of 0 and 2 U/ml of apyrase and approximately 0 to 20 μg/ml of colistin. After incubation, the numbers of viable cells were determined by counting the colony forming units (CFU) on the plate (data provided as CFU/ml).

[28] = tested on: Burkholderia multivorans AU0801; test: Viable cell count (CFU) with colistin and apyrase; conditions: apyrase 2 U/ml; colistin at less than 10 μg/ml
Description: Burkholderia multivorans AU0801 was grown in the presence of combinations of 0 and 2 U/ml of apyrase and approximately 0 to 20 μg/ml of colistin. After incubation, the numbers of viable cells were determined by counting the colony forming units (CFU) on the plate (data provided as CFU/ml).

[29] = tested on: A. baumannii DMC1; test: Mouse wound model, viable bacteria at burn sites 24 hours after burn; conditions: C57BL/6 mice, colistin 4 μg/ml
Description: In addition, experiments were performed to test the synergistic killing effects of colistin and apyrase in vivo. An established mouse wound model was used for this test.
Female pathogen-free C57BL/6 mice (Harlan, Indianapolis, Ind.), 12 weeks old, weighing ˜20-23 grams were used in all experiments. The skin over the lumbrosacral and back region was clipped using a 35-W model 5-55 E electrical clipper (Oyster-Golden A-S, Head no. 80, blade size 40) by using the method described by Ipaktchi et al. with slight modification. Two hundred microliters of a 0.9% saline suspension of A. baumannii DMC1 (1×10^6 cells/ml), which is a highly colistin resistant clinical strain, was used for wound infection experiments. Viable bacterial numbers were determined 24 hours after burn. The Student t-test was used for statistical analysis.
Experiments were carried out in four groups: (1) a control group (n=6), which contained neither apyrase nor colistin; (2) apyrase group (n=9), which contained apyrase (1 U/ml); (3) colistin group (n=9), which contained colistin (4 μg/ml); and (4) apyrase and colistin group (n=9), which was treated with the combination of apyrase (1 U/ml) and colistin (4 μg/ml). The treatment was applied immediately after inoculation. After 24 hours, the mice were given lethal IP injections of pentobarbital (150 mg/kg) and skin samples were collected using a scalpel and scissors.

[30] = tested on: A. baumannii ATCC DMC1; test: Mouse burn wound infection model, treatment 24 hours after inoculation; conditions: treated 24 hours after inoculation, sampled 48 hours after the burn
Description: After a burn, A. baumannii ATCC DMC1 was inoculated on skin. After 24 hours, the wounds were treated with apyrase alone, colistin alone, or apyrase and colistin in combination. Skin samples were collected after another 24 hours and the CFU/g skin of A. baumannii ATCC DMC1 was determined.

[31] = tested on: bacterial culture; test: Growth of a bacterial culture (optical density at 600 nm) with apyrase; format: cell-based; conditions: presence vs absence of apyrase over 15 to 20 hours
[32] = tested on: MSCs; test: Osteogenic differentiation of MSCs after burn injury (alizarin red), burn mouse model; format: in vivo
Text: (§2) At the cellular level, research has shown that aberrant expression of BMPs in adipose-derived MSCs near the wound site stimulates osteogenic differentiation of multipotent cells. […] Alizarin red is used in to determine, quantitatively by colorimetry, the presence of calcific deposition by cells of an osteogenic lineage. As such, it is a marker of matrix mineralization, a crucial step towards the formation of calcified extracellular matrix associated with true bone. Thus, alizarin red staining indicates differentiation of cells to bone lineages.
(§3) Consequently, it is contemplated that decreasing inflammation at the burn site with apyrase—thus decreasing ATP concentrations, which leads to decreased MSC BMP-2 signaling and decreased osteogenic differentiation—alleviates heterotopic ossification at wound sites.

[33] = tested on: BMP-2 signaling; test: BMP-2 signaling of MSCs after burn injury, burn mouse model; format: in vivo; conditions: apyrase at the burn site
Text: as §2, §3

[34] = Killing efficiency of antibacterial agents with apyrase (summary of the examples); format: cell-based; conditions: in some instances
Description: Embodiments of the technology relate to the surprising discovery that apyrase and antimicrobial agents act together synergistically. […] As such, the technology provides therapies in which antimicrobial agents are administered in lower doses (e.g., 0.01%, 0.1%, 1%, 5%, 10%, 20%, 50%, 75%, 90%, etc. of the standard recommended dosage) than in conventional technologies. Importantly, this reduces toxic side effects, if present, of antimicrobial agents in subjects and helps to prevent drug resistance of microbes. In addition, the technology provided herein comprising combined use of apyrase and antimicrobial agents provides the only treatment to kill some multiply-resistant strains of pathogens.

With `CCC(C)CCCC(=O)N[C@@H](CCN)C(=O)N[C@H](C(=O)N[C@@H](CCN)C(=O)N[C@H]1CCNC(=O)[C@H]([C@@H](C)O)NC(=O)[C@H](CCN)NC(=O)[C@H](CCN)NC(=O)[C@H](CC(C)C)NC(=O)[C@@H](CC(C)C)NC(=O)[C@H](CCN)NC1=O)[C@@H](C)O` (stereo partly drawn) [Colistin, colistin] ({Heptanoyl(5-Me)}-[Dab]T[Dab][Dab][Dab][dL]L[Dab][Dab]T; lactam 4-C) the viable cells detected [1] was 10^5 to 10^6 CFU/ml, the MIC [2] was over 32 µM and the MIC [3] was over 32 µM. For the same compound, the MIC [4] was 4 µM, the MIC [5] was over 32 µM and the MIC [6] was over 32 µM. It also gave an MIC [7] of over 16 µM, an MIC [8] of 2 µM and an MIC [9] of 16 µM. The MIC [10] was 1 µM, the MIC [11] was over 16 µM and the MIC [12] was over 16 µM. For the same compound, the MIC [13] was 2 µM, the MIC [14] was over 32 µM and the viable cell count [15] was “approximately 10^5 CFU/ml”. The viable cell count [16] was “approximately 10^7 CFU/ml”, the viable cells detected [17] was 10^7 to 10^8 CFU/ml and the viable cells detected [18] was 10^4 to 10^5 CFU/ml. The viable cells detected [19] was 10^4 to 10^5 CFU/ml, the viable cells detected [20] was 10^5 to 10^6 CFU/ml and the viable cells detected [21] was 10^5 to 10^6 CFU/ml. The viable cells detected [22] was 10^5 to 10^6 CFU/ml, the viable cells detected [23] was 10^4 to 10^5 CFU/ml and the viable cells detected [24] was 10^5 to 10^6 CFU/ml. For the same compound, the viable cells detected [25] was 10^4 to 10^5 CFU/ml, the viable cells detected [26] was 10^3 to 10^4 CFU/ml and the viable cells detected [27] was 10^6 to 10^7 CFU/ml. For the same compound, the viable cells detected [28] was 10^5 to 10^6 CFU/ml, the “viable bacteria number recovered from burn sites, compared with the control group” value [29] was “no significant difference” and the “A. baumannii detected on skin” value [30] was “approximately 10^8 CFU/g of skin”.

With apyrase the “growth of a bacterial culture (optical density at 600 nm)” value [31] was “does not affect bacterial growth”, the “osteogenic differentiation of MSCs (alizarin red)” value ([32]; after burn injury and apyrase treatment) was “significant decrease” and the “osteogenic capacity of the MSCs” value ([32]; apyrase at the burn site) was “decreased”. The “level of BMP-2 signaling of the MSCs” value [33] was “decreased”, the “increase of the killing efficiency of antibacterial agents” value [34] was 1000 times and the “A. baumannii detected on skin” value [30] was “approximately 10^8 CFU/g of skin”.

Source: US20150273025A1, “APYRASE TREATMENTS” (THE REGENTS OF THE UNIVERSITY OF MICHIGAN, priority 2012, published 2015)
